# According to PMC8699473, “An Easily Expandable Multi-Drug LC-MS Assay for the Simultaneous Quantification of 57 Oral Antitumor Drugs in Human Plasma” (Cancers, 2021):
# How the values were obtained:
# [1] = Freeze-thaw stability in spiked pooled human plasma; assay type: physicochemical
# [2] = Autosampler stability of ready for injection samples; assay type: physicochemical, human
# [3] = set-up: method as in supplement references [1-55] as printed per drug; details: minimum steady-state blood plasma concentration after multiple dose administration; ref supplement references [1-55] per drug; cited from earlier work
# [4] = Long-term stability in spiked pooled human plasma
# [5] = Short-term stability in spiked pooled human plasma (bench-top, 4 °C, 56 °C)
compound,measurement,setting,value
C[C@H]1Oc2cc(cnc2N)-c2c(nn(C)c2C#N)CN(C)C(=O)c2ccc(F)cc21 [Lorlatinib],Freeze-Thaw Accuracy [%],[1]; validation standard 2xLLOV,95.0%
same,Freeze-Thaw Accuracy [%],[1]; validation standard LLOV,96.0%
same,Freeze-Thaw Accuracy [%],[1]; validation standard MOV,95.2%
same,Freeze-Thaw Accuracy [%],[1]; validation standard ULOV,97.6%
same,"Autosampler (24h, 4°C) Accuracy [%]",[2]; validation standard 2xLLOV,101.6%
same,"Autosampler (72h, 4°C) Accuracy [%]",[2]; validation standard 2xLLOV,99.0%
same,"Autosampler (24h, 4°C) Accuracy [%]",[2]; validation standard LLOV,96.7%
same,"Autosampler (72h, 4°C) Accuracy [%]",[2]; validation standard LLOV,94.8%
same,"Autosampler (24h, 4°C) Accuracy [%]",[2]; validation standard MOV,102.0%
same,"Autosampler (72h, 4°C) Accuracy [%]",[2]; validation standard MOV,100.8%
same,"Autosampler (24h, 4°C) Accuracy [%]",[2]; validation standard ULOV,99.7%
same,"Autosampler (72h, 4°C) Accuracy [%]",[2]; validation standard ULOV,99.2%
same,cmin,[3],150 ng/mL
same,"Long-term stability, 1 month, -20°C Accuracy [%]",[4]; validation standard 2xLLOV,89.2%
same,"Long-term stability, 1 month, -80°C Accuracy [%]",[4]; validation standard 2xLLOV,84.9%
same,"Long-term stability, 2 month, -20°C Accuracy [%]",[4]; validation standard 2xLLOV,91.9%
same,"Long-term stability, 2 month, -80°C Accuracy [%]",[4]; validation standard 2xLLOV,91.9%
same,"Long-term stability, 3 month, -20°C Accuracy [%]",[4]; validation standard 2xLLOV,91.7%
same,"Long-term stability, 3 month, -80°C Accuracy [%]",[4]; validation standard 2xLLOV,90.8%
same,"Long-term stability, 6 weeks, 4°C, without daylight Accuracy [%]",[4]; validation standard 2xLLOV,96.7%
same,"Long-term stability, 1 month, -20°C Accuracy [%]",[4]; validation standard LLOV,87.9%
same,"Long-term stability, 1 month, -80°C Accuracy [%]",[4]; validation standard LLOV,82.6%
same,"Long-term stability, 2 month, -20°C Accuracy [%]",[4]; validation standard LLOV,90.0%
same,"Long-term stability, 2 month, -80°C Accuracy [%]",[4]; validation standard LLOV,87.6%
same,"Long-term stability, 3 month, -20°C Accuracy [%]",[4]; validation standard LLOV,95.7%
same,"Long-term stability, 3 month, -80°C Accuracy [%]",[4]; validation standard LLOV,93.2%
same,"Long-term stability, 6 weeks, 4°C, without daylight Accuracy [%]",[4]; validation standard LLOV,97.1%
same,"Long-term stability, 1 month, -20°C Accuracy [%]",[4]; validation standard MOV,88.5%
same,"Long-term stability, 1 month, -80°C Accuracy [%]",[4]; validation standard MOV,87.8%
same,"Long-term stability, 2 month, -20°C Accuracy [%]",[4]; validation standard MOV,93.9%
same,"Long-term stability, 2 month, -80°C Accuracy [%]",[4]; validation standard MOV,91.2%
same,"Long-term stability, 3 month, -20°C Accuracy [%]",[4]; validation standard MOV,90.9%
same,"Long-term stability, 3 month, -80°C Accuracy [%]",[4]; validation standard MOV,89.2%
same,"Long-term stability, 6 weeks, 4°C, without daylight Accuracy [%]",[4]; validation standard MOV,93.7%
same,"Long-term stability, 1 month, -20°C Accuracy [%]",[4]; validation standard ULOV,90.6%
same,"Long-term stability, 1 month, -80°C Accuracy [%]",[4]; validation standard ULOV,87.4%
same,"Long-term stability, 2 month, -20°C Accuracy [%]",[4]; validation standard ULOV,91.4%
same,"Long-term stability, 2 month, -80°C Accuracy [%]",[4]; validation standard ULOV,91.7%
same,"Long-term stability, 3 month, -20°C Accuracy [%]",[4]; validation standard ULOV,91.0%
same,"Long-term stability, 3 month, -80°C Accuracy [%]",[4]; validation standard ULOV,89.2%
same,"Long-term stability, 6 weeks, 4°C, without daylight Accuracy [%]",[4]; validation standard ULOV,91.4%
same,"Short-time stability (1h, 56°C) Accuracy [%]",[5]; validation standard 2xLLOV,60.0%
same,"Short-time stability (24h, 4°C, without daylight) Accuracy [%]",[5]; validation standard 2xLLOV,99.8%
same,"Short-time stability (24h, RT, with daylight) Accuracy [%]",[5]; validation standard 2xLLOV,98.9%
same,"Short-time stability (24h, RT, without daylight) Accuracy [%]",[5]; validation standard 2xLLOV,99.6%
same,"Short-time stability (1h, 56°C) Accuracy [%]",[5]; validation standard LLOV,54.3%
same,"Short-time stability (24h, 4°C, without daylight) Accuracy [%]",[5]; validation standard LLOV,98.8%
same,"Short-time stability (24h, RT, with daylight) Accuracy [%]",[5]; validation standard LLOV,96.4%
same,"Short-time stability (24h, RT, without daylight) Accuracy [%]",[5]; validation standard LLOV,97.8%
same,"Short-time stability (1h, 56°C) Accuracy [%]",[5]; validation standard MOV,57.8%
same,"Short-time stability (24h, 4°C, without daylight) Accuracy [%]",[5]; validation standard MOV,101.8%
same,"Short-time stability (24h, RT, with daylight) Accuracy [%]",[5]; validation standard MOV,100.2%
same,"Short-time stability (24h, RT, without daylight) Accuracy [%]",[5]; validation standard MOV,99.2%
same,"Short-time stability (1h, 56°C) Accuracy [%]",[5]; validation standard ULOV,50.7%
same,"Short-time stability (24h, 4°C, without daylight) Accuracy [%]",[5]; validation standard ULOV,97.0%
same,"Short-time stability (24h, RT, with daylight) Accuracy [%]",[5]; validation standard ULOV,100.4%
same,"Short-time stability (24h, RT, without daylight) Accuracy [%]",[5]; validation standard ULOV,99.9%
CNCc1ccc(-c2[nH]c3cc(F)cc4c3c2CCNC4=O)cc1 [Rucaparib],Freeze-Thaw Accuracy [%],[1]; validation standard 2xLLOV,93.7%
same,Freeze-Thaw Accuracy [%],[1]; validation standard LLOV,104.4%
same,Freeze-Thaw Accuracy [%],[1]; validation standard MOV,97.8%
same,Freeze-Thaw Accuracy [%],[1]; validation standard ULOV,95.5%
same,"Autosampler (24h, 4°C) Accuracy [%]",[2]; validation standard 2xLLOV,98.1%
same,"Autosampler (72h, 4°C) Accuracy [%]",[2]; validation standard 2xLLOV,96.4%
same,"Autosampler (24h, 4°C) Accuracy [%]",[2]; validation standard LLOV,104.5%
same,"Autosampler (72h, 4°C) Accuracy [%]",[2]; validation standard LLOV,104.1%
same,"Autosampler (24h, 4°C) Accuracy [%]",[2]; validation standard MOV,104.6%
same,"Autosampler (72h, 4°C) Accuracy [%]",[2]; validation standard MOV,103.8%
same,"Autosampler (24h, 4°C) Accuracy [%]",[2]; validation standard ULOV,100.1%
same,"Autosampler (72h, 4°C) Accuracy [%]",[2]; validation standard ULOV,102.4%
same,cmin,[3],1754 ng/mL
same,"Long-term stability, 1 month, -20°C Accuracy [%]",[4]; validation standard 2xLLOV,95.4%
same,"Long-term stability, 1 month, -80°C Accuracy [%]",[4]; validation standard 2xLLOV,89.7%
same,"Long-term stability, 2 month, -20°C Accuracy [%]",[4]; validation standard 2xLLOV,100.7%
same,"Long-term stability, 2 month, -80°C Accuracy [%]",[4]; validation standard 2xLLOV,99.7%
same,"Long-term stability, 3 month, -20°C Accuracy [%]",[4]; validation standard 2xLLOV,95.9%
same,"Long-term stability, 3 month, -80°C Accuracy [%]",[4]; validation standard 2xLLOV,94.7%
same,"Long-term stability, 6 weeks, 4°C, without daylight Accuracy [%]",[4]; validation standard 2xLLOV,93.1%
same,"Long-term stability, 1 month, -20°C Accuracy [%]",[4]; validation standard LLOV,104.7%
same,"Long-term stability, 1 month, -80°C Accuracy [%]",[4]; validation standard LLOV,102.1%
same,"Long-term stability, 2 month, -20°C Accuracy [%]",[4]; validation standard LLOV,115.1%
same,"Long-term stability, 2 month, -80°C Accuracy [%]",[4]; validation standard LLOV,112.2%
same,"Long-term stability, 3 month, -20°C Accuracy [%]",[4]; validation standard LLOV,109.6%
same,"Long-term stability, 3 month, -80°C Accuracy [%]",[4]; validation standard LLOV,108.0%
same,"Long-term stability, 6 weeks, 4°C, without daylight Accuracy [%]",[4]; validation standard LLOV,104.4%
same,"Long-term stability, 1 month, -20°C Accuracy [%]",[4]; validation standard MOV,98.5%
same,"Long-term stability, 1 month, -80°C Accuracy [%]",[4]; validation standard MOV,95.5%
same,"Long-term stability, 2 month, -20°C Accuracy [%]",[4]; validation standard MOV,104.6%
same,"Long-term stability, 2 month, -80°C Accuracy [%]",[4]; validation standard MOV,102.1%
same,"Long-term stability, 3 month, -20°C Accuracy [%]",[4]; validation standard MOV,101.6%
same,"Long-term stability, 3 month, -80°C Accuracy [%]",[4]; validation standard MOV,97.2%
same,"Long-term stability, 6 weeks, 4°C, without daylight Accuracy [%]",[4]; validation standard MOV,103.5%
same,"Long-term stability, 1 month, -20°C Accuracy [%]",[4]; validation standard ULOV,99.8%
same,"Long-term stability, 1 month, -80°C Accuracy [%]",[4]; validation standard ULOV,94.8%
same,"Long-term stability, 2 month, -20°C Accuracy [%]",[4]; validation standard ULOV,104.3%
same,"Long-term stability, 2 month, -80°C Accuracy [%]",[4]; validation standard ULOV,102.7%
same,"Long-term stability, 3 month, -20°C Accuracy [%]",[4]; validation standard ULOV,100.6%
same,"Long-term stability, 3 month, -80°C Accuracy [%]",[4]; validation standard ULOV,98.3%
same,"Long-term stability, 6 weeks, 4°C, without daylight Accuracy [%]",[4]; validation standard ULOV,100.2%
same,"Short-time stability (1h, 56°C) Accuracy [%]",[5]; validation standard 2xLLOV,56.7%
same,"Short-time stability (24h, 4°C, without daylight) Accuracy [%]",[5]; validation standard 2xLLOV,94.0%
same,"Short-time stability (24h, RT, with daylight) Accuracy [%]",[5]; validation standard 2xLLOV,94.3%
same,"Short-time stability (24h, RT, without daylight) Accuracy [%]",[5]; validation standard 2xLLOV,95.8%
same,"Short-time stability (1h, 56°C) Accuracy [%]",[5]; validation standard LLOV,60.9%
same,"Short-time stability (24h, 4°C, without daylight) Accuracy [%]",[5]; validation standard LLOV,106.8%
same,"Short-time stability (24h, RT, with daylight) Accuracy [%]",[5]; validation standard LLOV,100.0%
same,"Short-time stability (24h, RT, without daylight) Accuracy [%]",[5]; validation standard LLOV,99.7%
same,"Short-time stability (1h, 56°C) Accuracy [%]",[5]; validation standard MOV,52.2%
same,"Short-time stability (24h, 4°C, without daylight) Accuracy [%]",[5]; validation standard MOV,102.0%
same,"Short-time stability (24h, RT, with daylight) Accuracy [%]",[5]; validation standard MOV,100.5%
same,"Short-time stability (24h, RT, without daylight) Accuracy [%]",[5]; validation standard MOV,102.1%
same,"Short-time stability (1h, 56°C) Accuracy [%]",[5]; validation standard ULOV,46.1%
same,"Short-time stability (24h, 4°C, without daylight) Accuracy [%]",[5]; validation standard ULOV,96.9%
same,"Short-time stability (24h, RT, with daylight) Accuracy [%]",[5]; validation standard ULOV,98.9%
same,"Short-time stability (24h, RT, without daylight) Accuracy [%]",[5]; validation standard ULOV,99.1%
